What all share (format): in vivo
For one experiment, the system named is Zymoseptoria tritici. Put plainly: Test E: preventive spray on wheat seedlings, wheat leaf blotch, visual disease rating. To be noted: for pest or weed control at 250 ppm: Zymoseptoria tritici. The text has this:
(§1) General protocol for preparing test solutions for Tests AG: the test compounds were first dissolved in acetone in an amount equal to 3% of the final volume and then suspended at the desired concentration (in ppm) in acetone and purified water (50/50 mix by volume) containing the surfactant PEG400 (polyhydric alcohol esters). The resulting test suspensions were then used in Tests AG. Compounds were sprayed at a concentration of 250 ppm or other indicated rate to the point of run-off on the test plants. The test solution was sprayed to the point of run-off on wheat seedlings. […] A dash (-) indicates no test results.

The subject of the next experiment is Phytophthora infestans. Put plainly: whole plant or invertebrate. The following applies: for Test D disease control rating: tomato seedlings; for pest or weed control at 250 ppm: Phytophthora infestans, in Solanum lycopersicum, read-out: Test D disease control rating.
Experiment [1] concerns Erysiphe graminis f. sp. tritici. Put plainly: Test G: preventive spray on wheat seedlings, wheat powdery mildew, visual disease rating. The following applies: for pest or weed control at 250 ppm: Blumeria graminis, 192 h.
From the text: as §1

A further experiment has as its system Phakopsora pachyrhizi. Put plainly: Test A: preventive spray on soybean seedlings, Asian soybean rust, visual disease rating. To be noted: for pest or weed control at 250 ppm: Phakopsora pachyrhizi.
The next experiment deals with Botrytis cinerea. Put plainly: Test C: preventive spray on tomato seedlings, gray mold, visual disease rating. The following applies: for pest or weed control at 250 ppm: Botrytis cinerea.
From the text: as §1, with “tomato” for “wheat”

The subject of experiment [2] is Puccinia recondita f. sp. tritici. Put plainly: Test F: preventive spray on wheat seedlings, wheat leaf rust, visual disease rating. The following applies: for pest or weed control at 250 ppm: Puccinia recondita.
From the text: as §1, with “seedlings. The following day the seedlings were inoculated with a spore suspension of Puccinia recondita f. sp. tritici;” for “seedlings.”

The mark [3] stands for this setting: 250 ppm, 100 = 100% disease control, 0 = no control.

The structures appear in SMILES notation.

For `Cc1cccc(NC(=O)c2c(OS(C)(=O)=O)cnn(C)c2=O)c1` [Compound 105], the “Test E disease control rating” value in the experiment on Zymoseptoria tritici (setting [3]) came to 86%. Also, in the experiment with Phytophthora infestans (setting [3]), the “Test D disease control rating” value is 33%. For the same compound, the “Test G disease control rating” value in experiment [1] (setting [3]) worked out at 0%. In addition, in the experiment with Phakopsora pachyrhizi (setting [3]), the “Test A disease control rating” value amounted to 86%. Also, in the experiment with Botrytis cinerea (setting [3]), the “Test C disease control rating” value turned out to be 0%. The “Test F disease control rating” value in experiment [2] (setting [3]) was 86%.

`COc1cccc(NC(=O)c2c(O)cnn(C)c2=O)c1` [Compound 55]: the “Test E disease control rating” value in the experiment with Zymoseptoria tritici (setting [3]) worked out at 0%. Further, in the experiment on Phytophthora infestans (setting [3]), the “Test D disease control rating” value was found to be 0%. Besides, the “Test G disease control rating” value in experiment [1] (setting [3]) is 0%. The “Test A disease control rating” value in the experiment on Phakopsora pachyrhizi (setting [3]) is on record as 0%. Besides, the “Test C disease control rating” value with Botrytis cinerea (setting [3]) stood at 0%. Also, in experiment [2] (setting [3]), the “Test F disease control rating” value is on record as 89%.

For the compound `Cn1ncc(Cl)c(C(=O)Nc2cccc(OC(F)(F)F)c2)c1=O` [Compound 63], in the experiment with Zymoseptoria tritici (270 ppm), the “Test E disease control rating” value is 98%. Moreover, the “Test D disease control rating” value in the experiment with Phytophthora infestans (270 ppm) stood at 53%. For the same compound, in experiment [1] (270 ppm), the “Test G disease control rating” value was found to be 48%. For the same compound, the “Test A disease control rating” value in the experiment with Phakopsora pachyrhizi (270 ppm) came to 59%. In the experiment on Botrytis cinerea (270 ppm), the “Test C disease control rating” value was 53%. Also, the “Test F disease control rating” value in experiment [2] (270 ppm) was determined as 86%.

On to `Cn1ncc(Cl)c(C(=O)Nc2ccc(C(F)(F)F)cc2F)c1=O` [Compound 52], for which the “Test E disease control rating” value in the experiment on Zymoseptoria tritici (160 ppm) came to 99%. Besides, in the experiment with Phytophthora infestans (160 ppm), the “Test D disease control rating” value is listed as 90%. For the same compound, the “Test G disease control rating” value in experiment [1] (160 ppm) worked out at 39%. The “Test A disease control rating” value in the experiment with Phakopsora pachyrhizi (160 ppm) came out at 97%. Further, the “Test C disease control rating” value with Botrytis cinerea (160 ppm) is listed as 59%. Besides, in experiment [2] (160 ppm), the “Test F disease control rating” value came to 99%.

As for `Cn1ncc(OS(C)(=O)=O)c(C(=O)Nc2ccc(S(F)(F)(F)(F)F)cc2)c1=O` [Compound 99, [4-[[[2,3-Dihydro-2-methyl-5-[(methylsulfonyl)oxy]-3-oxo-4-pyridazinyl]carbonyl]amino]phenyl]pentafluorosulfur], the pest or weed control at 250 ppm worked out at 100% with Zymoseptoria tritici (setting [3]); 92% in the experiment with Phytophthora infestans; 83% in experiment [1] (setting [3]); 99% in the experiment with Phakopsora pachyrhizi (setting [3]); 50% in the experiment on Botrytis cinerea (setting [3]); 98% in experiment [2] (setting [3]).

On to `Cn1ncc(OS(C)(=O)=O)c(C(=O)Nc2ccc(OC(F)(F)F)cc2F)c1=O` [Compound 100], for which, in the experiment with Zymoseptoria tritici (setting [3]), the “Test E disease control rating” value came out at 92%. In addition, the “Test D disease control rating” value with Phytophthora infestans (setting [3]) came to 0%. Also, the “Test G disease control rating” value in experiment [1] (setting [3]) is given as 0%. In addition, the “Test A disease control rating” value with Phakopsora pachyrhizi (setting [3]) is listed as 94%. Also, the “Test C disease control rating” value in the experiment on Botrytis cinerea (setting [3]) is reported as 98%. Besides, the “Test F disease control rating” value in experiment [2] (setting [3]) is given as 95%.

For `Cn1ncc(OS(C)(=O)=O)c(C(=O)Nc2ccc(C#N)cc2)c1=O` [Compound 98, N-(4-cyanophenyl)-2,3-dihydro-2-methyl-5-[(methylsulfonyl)oxy]-3-oxo-4-pyridazinecarboxamide], the pest or weed control at 250 ppm turned out to be 95% with Zymoseptoria tritici (setting [3]); 9% in the experiment with Phytophthora infestans; 0% in experiment [1] (setting [3]); 99% with Phakopsora pachyrhizi (setting [3]); 98% in the experiment on Botrytis cinerea (setting [3]); 97% in experiment [2] (setting [3]).

Take `Cn1ncc(OS(C)(=O)=O)c(C(=O)Nc2ccccc2-c2cc(F)c(F)c(F)c2)c1=O` [Compound 103]: the “Test E disease control rating” value in the experiment on Zymoseptoria tritici (setting [3]) worked out at 96%. Further, in the experiment with Phytophthora infestans (setting [3]), the “Test D disease control rating” value was determined as 0%. Further, the “Test G disease control rating” value in experiment [1] (setting [3]) turned out to be 73%. Further, the “Test A disease control rating” value with Phakopsora pachyrhizi (setting [3]) was found to be 84%. Besides, the “Test C disease control rating” value with Botrytis cinerea (setting [3]) amounted to 0%. In experiment [2] (setting [3]), the “Test F disease control rating” value is listed as 90%.

`Cn1ncc(OS(C)(=O)=O)c(C(=O)Nc2ccc(C(F)(F)F)cc2)c1=O` [Compound 96, 2,3-Dihydro-2-methyl-5-[(methylsulfonyl)oxy]-3-oxo-N-[4-(trifluoromethyl)phenyl]-4-pyridazinecarboxamide]: the pest or weed control at 250 ppm in the experiment on Zymoseptoria tritici (setting [3]) worked out at 97%; in the experiment with Phytophthora infestans, 0%; in experiment [1] (setting [3]), 84%; with Phakopsora pachyrhizi (setting [3]), 98%; in the experiment with Botrytis cinerea (setting [3]) it was 30%; in experiment [2] (setting [3]) it was 99%.

Consider `Cn1ncc(O)c(C(=O)Nc2cccc(OC(F)(F)F)c2)c1=O` [Compound 57], for which, in the experiment with Zymoseptoria tritici (setting [3]), the “Test E disease control rating” value is 8%. The “Test D disease control rating” value in the experiment on Phytophthora infestans (setting [3]) is reported as 0%. Moreover, the “Test G disease control rating” value in experiment [1] (setting [3]) is recorded as 98%. The “Test A disease control rating” value in the experiment on Phakopsora pachyrhizi (setting [3]) came to 0%. In addition, the “Test C disease control rating” value in the experiment on Botrytis cinerea (setting [3]) stood at 0%. The “Test F disease control rating” value in experiment [2] (setting [3]) is reported as 84%.

On to `Cn1ncc(O)c(C(=O)Nc2ccc(S(C)(=O)=O)cc2)c1=O` [Compound 49], for which the “Test E disease control rating” value in the experiment on Zymoseptoria tritici (setting [3]) came out at 0%. In addition, the “Test D disease control rating” value in the experiment with Phytophthora infestans (setting [3]) was found to be 0%. Also, in experiment [1] (setting [3]), the “Test G disease control rating” value is 0%. Besides, the “Test A disease control rating” value in the experiment with Phakopsora pachyrhizi (setting [3]) is 0%. In addition, in the experiment with Botrytis cinerea (setting [3]), the “Test C disease control rating” value stood at 0%. Moreover, in experiment [2] (setting [3]), the “Test F disease control rating” value is given as 68%.

`Cn1ncc(O)c(C(=O)Nc2ccccc2-c2cc(F)c(F)c(F)c2)c1=O` [Compound 27]: the “Test E disease control rating” value in the experiment on Zymoseptoria tritici (setting [3]) is on record as 0%. In addition, the “Test D disease control rating” value in the experiment on Phytophthora infestans (setting [3]) stood at 0%. For the same compound, in experiment [1] (setting [3]), the “Test G disease control rating” value stood at 0%. The “Test A disease control rating” value in the experiment with Phakopsora pachyrhizi (setting [3]) came out at 0%. In the experiment on Botrytis cinerea (setting [3]), the “Test C disease control rating” value was 0%. In addition, the “Test F disease control rating” value in experiment [2] (setting [3]) is 98%.

As for `Cn1ncc(O)c(C(=O)Nc2ccc(F)cc2)c1=O` [Compound 40], in the experiment on Zymoseptoria tritici (setting [3]), the “Test E disease control rating” value is given as 96%. In addition, the “Test D disease control rating” value in the experiment with Phytophthora infestans (setting [3]) came to 73%. For the same compound, the “Test G disease control rating” value in experiment [1] (setting [3]) was 92%. For the same compound, the “Test A disease control rating” value in the experiment with Phakopsora pachyrhizi (setting [3]) is reported as 56%. In addition, the “Test C disease control rating” value with Botrytis cinerea (setting [3]) is recorded as 96%. The “Test F disease control rating” value in experiment [2] (setting [3]) is given as 95%.

For `COc1ccccc1NC(=O)c1c(O)cnn(C)c1=O` [Compound 34], the “Test E disease control rating” value with Zymoseptoria tritici (setting [3]) came to 0%. Moreover, the “Test D disease control rating” value in the experiment with Phytophthora infestans (setting [3]) is listed as 0%. In experiment [1] (setting [3]), the “Test G disease control rating” value is 0%. Further, the “Test A disease control rating” value in the experiment with Phakopsora pachyrhizi (setting [3]) was determined as 0%. In addition, the “Test C disease control rating” value in the experiment on Botrytis cinerea (setting [3]) amounted to 0%. Also, the “Test F disease control rating” value in experiment [2] (setting [3]) came out at 80%.

As for `Cn1ncc(OC(=O)c2ccccc2)c(C(=O)N(C(=O)c2ccccc2)c2ccc(OC(F)(F)F)cc2)c1=O` [Compound 81], the “Test E disease control rating” value in the experiment with Zymoseptoria tritici (setting [3]) came out at 67%. The “Test D disease control rating” value in the experiment on Phytophthora infestans (setting [3]) amounted to 0%. Further, the “Test G disease control rating” value in experiment [1] (setting [3]) is listed as 0%. Moreover, the “Test A disease control rating” value with Phakopsora pachyrhizi (setting [3]) amounted to 0%. Further, in the experiment with Botrytis cinerea (setting [3]), the “Test C disease control rating” value is listed as 0%. In addition, the “Test F disease control rating” value in experiment [2] (setting [3]) is reported as 98%.

With `COc1cnn(C)c(=O)c1C(=O)Nc1ccc(Br)cc1` [Compound 59], the “Test E disease control rating” value with Zymoseptoria tritici (setting [3]) is 0%. For the same compound, the “Test D disease control rating” value in the experiment on Phytophthora infestans (setting [3]) is given as 0%. The “Test G disease control rating” value in experiment [1] (setting [3]) came out at 0%. In the experiment on Phakopsora pachyrhizi (setting [3]), the “Test A disease control rating” value is reported as 0%. Further, in the experiment on Botrytis cinerea (setting [3]), the “Test C disease control rating” value is 0%. Further, in experiment [2] (setting [3]), the “Test F disease control rating” value stood at 0%.

On to `Cc1ccc(S(=O)(=O)Oc2cnn(C)c(=O)c2C(=O)Nc2ccc(OC(F)(F)F)cc2)cc1` [Compound 112], for which the “Test E disease control rating” value in the experiment with Zymoseptoria tritici (setting [3]) is recorded as 43%. Further, the “Test D disease control rating” value in the experiment with Phytophthora infestans (setting [3]) is listed as 46%. The “Test G disease control rating” value in experiment [1] (setting [3]) is reported as 0%. Moreover, the “Test A disease control rating” value with Phakopsora pachyrhizi (setting [3]) came out at 25%. Also, in the experiment with Botrytis cinerea (setting [3]), the “Test C disease control rating” value came out at 0%. Moreover, in experiment [2] (setting [3]), the “Test F disease control rating” value worked out at 95%.

For the origin of these results see patent US20190133128A1, “Fungicidal pyridazinones” (FMC Corporation, priority 2017, published 2019).
